Drawing on patent US6632809B2, “Gyrase inhibitors and uses thereof” (Vertex Pharmaceuticals Incorporated, priority 2000, dated 2003), this text covers MIC and inhibition for three compounds.

In brackets after ≈: the same amount, converted by molar mass.

The subject of one experiment is test bacteria. Nature of the experiment: Susceptibility Testing in Liquid Media (MIC assay). Particulars: broth dilution, MHB, 35° C. overnight (16 to 20 hr); organism not given; read-out: MIC (minimal inhibitory concentration) activity level. Type of experiment: cell-based. The procedure:
Susceptibility Testing in Liquid Media
Compounds of this invention were also tested for antimicrobial activity by susceptibility testing in liquid media. Such assays were performed within the guidelines of the latest NCCLS document governing such practices: “M7-A5 Methods for dilution Antimicrobial Susceptibility Tests for Bacteria that Grow Aerobically; Approved Standard—Fifth Edition (2000)”. Other publications such as “Antibiotics in Laboratory Medicine” (Edited by V. Lorian, Publishers Williams and Wilkins, 1996) provide essential practical techniques in laboratory antibiotic testing. Essentially, several discrete bacterial colonies (3 to 7) from a freshly streaked plate were transferred to an appropriate rich broth medium such as MHB, supplemented where appropriate for the more fastidious organisms. This was grown overnight to high density followed by a 1 or 2-thousand-fold dilution to give an inoculation density of between 5×10^5 and 5×10^6 CFU per mL. Alternatively, the freshly picked colonies can be incubated at 37° C. for about 4 to 8 hrs until the culture equals or exceeds a turbidity of a 0.5 McFarland standard (approximately 1.5×10^8 cells per mL) and diluted to give the same CFU per mL as above. In a more convenient method, the inoculum was prepared using a commercially available mechanical device (the BBL PROMPT System) that involves touching five colonies directly with a wand, containing crosshatch grooves at its bottom, followed by suspension of the bacteria in an appropriate volume of saline. Dilution to the appropriate inoculum cell density was made from this cell suspension. The broth used for testing consists of MHB supplemented with 50 mg per L of Ca^2+ and 25 mg per L of Mg^2+. Standard dilution panels of control antibiotics were made and stored as in the NCCLS standard M7-A5, the dilution range typically being in the 128 μg per mL to 0.015 μg per mL (by 2-fold serial dilution). The test compounds were dissolved and diluted fresh for experimentation on the same day; the same or similar ranges of concentration as above being used. The test compounds and controls were dispensed into a multiwell plate and test bacteria added such that the final inoculation was approximately 5×10^4 CFU per well and the final volume was 100 μL. The plates were incubated at 35° C. overnight (16 to 20 hr) and checked by eye for turbidity or quantitated with a multiwell plate reader. […] Such determinations were also compared to the appropriate tables contained in the above two publications to ensure that the range of antibacterial activity is within the acceptable range for this standardized assay.
The compound numbers correspond to the compound numbers in Table 1.

Experiment [1] has as its target DNA gyrase (374 kDa Gyr A2B2 subunit from Staphylococcus aureus) (Staphylococcus aureus, UniProt P0A0K8). Nature of the experiment: Gyrase ATPase Assay. Particulars: 10 μM concentration; ATPase assay at 30° C., 0.9 mM ATP; average of duplicate values; read-out: Gyrase Inhibitory Activity (percent inhibition). The class given is biochemical. A digest of the protocol: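 S. aureus GyrA2B2 (40 nM) was preincubated 10 min at 30 °C with inhibitor (4% DMSO final) in 100 mM Tris pH 7.6, 1.5 mM MgCl2, 50 mM KCl. Reactions were started with 0.9 mM ATP, and ADP formation was followed via PK/LDH-coupled NADH loss at 340 nm over 10 min. Percent inhibition is the mean of duplicates.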

Sequence of DNA gyrase (374 kDa Gyr A2B2 subunit from Staphylococcus aureus) (P0A0K8 whole entry): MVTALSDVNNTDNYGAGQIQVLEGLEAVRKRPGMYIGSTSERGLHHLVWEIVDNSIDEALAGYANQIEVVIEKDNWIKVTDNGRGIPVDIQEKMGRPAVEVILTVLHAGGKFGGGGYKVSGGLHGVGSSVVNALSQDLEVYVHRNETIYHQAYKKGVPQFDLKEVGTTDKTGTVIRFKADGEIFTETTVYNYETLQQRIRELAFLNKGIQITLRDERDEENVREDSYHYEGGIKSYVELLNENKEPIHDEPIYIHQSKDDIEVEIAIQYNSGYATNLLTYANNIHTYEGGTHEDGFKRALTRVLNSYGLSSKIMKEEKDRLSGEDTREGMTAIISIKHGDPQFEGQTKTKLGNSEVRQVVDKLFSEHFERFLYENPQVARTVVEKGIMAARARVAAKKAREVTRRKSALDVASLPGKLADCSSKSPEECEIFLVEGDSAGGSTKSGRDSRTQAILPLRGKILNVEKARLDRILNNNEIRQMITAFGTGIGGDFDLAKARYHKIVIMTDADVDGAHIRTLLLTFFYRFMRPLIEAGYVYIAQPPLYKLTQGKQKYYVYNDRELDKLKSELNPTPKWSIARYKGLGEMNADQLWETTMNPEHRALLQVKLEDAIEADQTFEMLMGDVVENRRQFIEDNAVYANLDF
Sequence of DNA gyrase (374 kDa Gyr A2B2 subunit from Staphylococcus aureus) (P20831 whole entry, further chain): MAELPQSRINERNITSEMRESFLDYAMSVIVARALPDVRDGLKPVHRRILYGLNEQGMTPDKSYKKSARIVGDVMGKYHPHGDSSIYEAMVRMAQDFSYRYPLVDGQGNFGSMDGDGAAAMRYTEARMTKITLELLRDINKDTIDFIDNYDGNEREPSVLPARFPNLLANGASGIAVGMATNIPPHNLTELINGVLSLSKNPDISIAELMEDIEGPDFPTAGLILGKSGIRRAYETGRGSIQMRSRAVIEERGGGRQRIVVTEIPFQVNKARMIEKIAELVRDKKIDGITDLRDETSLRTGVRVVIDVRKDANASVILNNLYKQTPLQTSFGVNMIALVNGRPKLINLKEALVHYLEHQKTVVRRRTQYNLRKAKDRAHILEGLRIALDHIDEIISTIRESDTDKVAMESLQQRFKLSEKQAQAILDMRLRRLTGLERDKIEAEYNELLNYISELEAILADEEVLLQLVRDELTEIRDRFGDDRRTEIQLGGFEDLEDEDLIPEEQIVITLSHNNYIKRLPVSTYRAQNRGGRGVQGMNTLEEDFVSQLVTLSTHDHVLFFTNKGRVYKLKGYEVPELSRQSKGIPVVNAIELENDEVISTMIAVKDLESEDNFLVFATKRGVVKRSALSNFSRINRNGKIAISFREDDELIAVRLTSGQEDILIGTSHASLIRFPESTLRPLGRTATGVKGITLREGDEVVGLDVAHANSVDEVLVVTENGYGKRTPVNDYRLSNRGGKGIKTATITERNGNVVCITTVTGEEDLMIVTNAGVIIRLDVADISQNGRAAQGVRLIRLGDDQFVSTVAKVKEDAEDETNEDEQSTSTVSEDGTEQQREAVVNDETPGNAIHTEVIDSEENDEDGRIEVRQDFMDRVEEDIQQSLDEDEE

On to `CCNC(=O)Nc1nc2cc(-n3cnc(C(=O)NCc4cccnc4)c3)ccc2[nH]1` [Ia-171], for which the MIC with test bacteria is 10 to 40 µg/mL (≈ 24.7 to 98.9 µM). Also, in experiment [1], the inhibition at 10 µM was over 75%.
Consider `O=C(Nc1nc2cc(-c3cccnc3)ccc2[nH]1)NC1CCCC1` [Ia-121], for which the MIC with test bacteria was over 40 µg/mL. Moreover, the inhibition at 10 µM in experiment [1] was under 50%.
With `CCNC(=O)Nc1nc2cc(-c3cnc(OC)nc3)c(OC)cc2[nH]1` [Ia-112], in the experiment on test bacteria, the MIC is under 10 µg/mL. For the same compound, the inhibition at 10 µM in experiment [1] was over 75%.
